Laboratory results: PubChem BioAssay AID248 (DTP/NCI, 2004)
Where “and” joins values, the source holds several entries; their conditions need not be identical. Equal entries are not always repeated. Toxic doses and inconclusive results are not listed. No stated cut-off is given here; in the data, active means T/C of 150% or more; inactive means T/C below 125%.

Test system: L1210 leukemia ip in BDF1 mice, survival T/C
Experiment: NCI In Vivo Anticancer Drug Screen. Data for tumor model L1210 Leukemia (intraperitoneal) in B6D2F1 (BDF1) mice
Details: endpoint: mean survival time, higher = longer survival
In short: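 Tumor was transplanted into mice, which were then dosed with test compound or vehicle alone. Survival was recorded for each group, and the treated figure was expressed relative to the control figure.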

Measured: T/C

COc1nc(Cl)nc(Cl)c1Cl (tested in a mixture with another compound)
inactive: dose: 50.0 mg/kg/injection, schedule: Q01DX009 (ip), vehicle: other 87 % of control | dose: 100.0 mg/kg/injection, schedule: Q01DX009 (ip), vehicle: other 102 % of control

CCCC(=O)c1ccc(OC)c(OC)c1
inactive: dose: 100.0 mg/kg/injection, schedule: Q01DX009 (ip), vehicle: Klucel (hydroxypropylcellulose) (HPC) 101 % of control | dose: 200.0 mg/kg/injection, schedule: Q01DX009 (ip), vehicle: Klucel (hydroxypropylcellulose) (HPC) 95 % of control

Cc1ccc(Cl)cc1NC(=O)Nc1cccc2ccc(O)cc12
inactive: dose: 50.0 mg/kg/injection, schedule: Q04DX003 (ip), vehicle: saline with Tween-80 102 % of control | dose: 100.0 mg/kg/injection, schedule: Q01DX001 (ip), vehicle: saline with Tween-80 95 % of control | dose: 100.0 mg/kg/injection, schedule: Q01DX009 (ip), vehicle: saline with Tween-80 95 % of control and 101 % of control | dose: 100.0 mg/kg/injection, schedule: Q04DX002 (ip), vehicle: saline with Tween-80 102 % of control and 90 % of control | dose: 100.0 mg/kg/injection, schedule: Q04DX003 (ip), vehicle: saline with Tween-80 96 % of control | dose: 200.0 mg/kg/injection, schedule: Q01DX001 (ip), vehicle: saline with Tween-80 97 % of control | dose: 200.0 mg/kg/injection, schedule: Q01DX009 (ip), vehicle: saline with Tween-80 88 % of control and 92 % of control | dose: 200.0 mg/kg/injection, schedule: Q04DX002 (ip), vehicle: saline with Tween-80 95 % of control and 91 % of control | dose: 200.0 mg/kg/injection, schedule: Q04DX003 (ip), vehicle: saline with Tween-80 91 % of control | dose: 400.0 mg/kg/injection, schedule: Q01DX001 (ip), vehicle: saline with Tween-80 101 % of control | dose: 400.0 mg/kg/injection, schedule: Q01DX009 (ip), vehicle: saline with Tween-80 95 % of control and 103 % of control | dose: 400.0 mg/kg/injection, schedule: Q04DX002 (ip), vehicle: saline with Tween-80 87 % of control and 90 % of control | dose: 400.0 mg/kg/injection, schedule: Q04DX003 (ip), vehicle: saline with Tween-80 96 % of control

CC1(C)Cc2cccc(C(=O)CCCN3CCCCC3)c2O1
inactive: dose: 100.0 mg/kg/injection, schedule: Q01DX001 (ip), vehicle: saline 104 % of control

NC(=O)NCCC(=O)O
inactive: dose: 100.0 mg/kg/injection, schedule: Q04DX002 (ip), vehicle: saline 115 % of control | dose: 200.0 mg/kg/injection, schedule: Q04DX002 (ip), vehicle: saline 112 % of control | dose: 400.0 mg/kg/injection, schedule: Q04DX002 (ip), vehicle: saline 101 % of control
